Source: PMC4393326, “The natural product brartemicin is a high affinity ligand for the carbohydrate-recognition domain of the macrophage receptor mincle” (Medchemcomm, 2015)

Experiments:
[1] = target: T1, CRD from bovine mincle (Bos taurus, UniProt E1BHM0); assay: Competition binding assay: inhibition of radioiodinated Man31-bovine serum albumin binding to immobilized biotin-tagged CRD; conditions: for Reduction in binding affinity compared to brartemicin / Rel. affinity (affinity relative to α,α-trehalose): bovine mincle CRD; for Rel. affinity (affinity relative to α,α-trehalose): α,α-trehalose = 1; for Ki: inhibition of mannose-conjugated serum albumin binding to bovine mincle CRD, average ± s.d. for three independent experiments
T1 construct: A biotin-tagged version of the CRD from bovine mincle was prepared in a bacterial expression system; made in house; host or cells: bacterial expression system
T1 sequence (E1BHM0 78-211 limits assumed): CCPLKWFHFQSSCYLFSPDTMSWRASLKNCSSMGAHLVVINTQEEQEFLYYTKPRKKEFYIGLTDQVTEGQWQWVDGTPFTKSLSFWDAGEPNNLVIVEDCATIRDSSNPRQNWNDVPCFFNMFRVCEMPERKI
Method: The collection of compounds was tested in competition binding experiments with immobilized bovine mincle CRD[8] (Fig. 3a).
Fig. 3 a) Data for inhibition of mannose-conjugated serum albumin binding to the CRD from bovine mincle by brartemicin and analogs. K I-values (average ± s.d. for three independent experiments) and affinities relative to α,α-trehalose. b) Top view and c) side view of highest scoring docking pose of brartemicin with bovine mincle. The Ca^2+ is coloured magenta. TEXT PRINTED IN THE PICTURE: (a) brartemicin: Ki (μM): 5.5 ± 0.9; Rel. affinity: 290 | (a) 2: Ki (μM): 5.4 ± 0.3; Rel. affinity: 300 | (a) 3: Ki (μM): 11.3 ± 0.9; Rel. affinity: 140 | (a) 4: Ki (μM): 164 ± 13; Rel. affinity: 9.8 | (a) epi-brartemicin: Ki (μM): 440 ± 70; Rel. affinity: 3.6 | (a) α,α-trehalose: Ki (μM): 1620 ± 70; Rel. affinity: 1
(§1) A biotin-tagged version of the CRD from bovine mincle was prepared in a bacterial expression system as previously described.[8] An equivalent fragment of human mincle was generated using an analogous system.[9] Binding competition assays, based on inhibition of binding of radioiodinated Man31-bovine serum albumin to the biotin-tagged CRDs immobilized on streptavidin-coated plates, were performed as previously described.[8] Results are reported as average ± standard deviation for at least 3 independent experiments, each performed in duplicate.

[2] = system: cancer cells; conditions: cited from earlier work
[3] = target: T2, CRD of human mincle (Homo sapiens, UniProt Q9ULY5); assay: Competition binding assay with immobilized CRD of human mincle; conditions: Fig. S1
T2 construct: made in house; host or cells: bacterial expression system (analogous to the bovine one)
T2 sequence (Q9ULY5 87-206 limits assumed): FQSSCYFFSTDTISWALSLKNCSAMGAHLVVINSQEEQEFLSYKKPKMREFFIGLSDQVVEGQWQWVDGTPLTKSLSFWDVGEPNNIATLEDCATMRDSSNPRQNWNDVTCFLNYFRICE
Method: as §1

[4] = Solubility in aqueous media; type: physicochemical

## O=C(OC[C@H]1O[C@H](O[C@H]2O[C@H](COC(=O)c3ccccc3)[C@@H](O)[C@H](O)[C@H]2O)[C@H](O)[C@@H](O)[C@@H]1O)c1ccccc1 [compound 3]
[1]
  Reduction in binding affinity compared to brartemicin: two-fold
  Rel. affinity (affinity relative to α,α-trehalose): 140 fold
  Ki: 11.3 ± 0.9 µM
[2]
  Anti-invasive activity on cancer cells: in the same range as brartemicin

## OC[C@H]1O[C@H](O[C@H]2O[C@H](CO)[C@@H](O)[C@H](O)[C@H]2O)[C@H](O)[C@@H](O)[C@@H]1O [α,α-trehalose, reference compound]
[1]
  Rel. affinity (affinity relative to α,α-trehalose): 1 fold
  Ki: 1620 ± 70 µM

## COc1cccc(C(=O)OC[C@H]2O[C@H](O[C@H]3O[C@H](COC(=O)c4cccc(OC)c4OC)[C@@H](O)[C@H](O)[C@H]3O)[C@H](O)[C@@H](O)[C@@H]2O)c1OC [compound 2]
[1]
  Reduction in binding affinity compared to brartemicin: equipotent
  Rel. affinity (affinity relative to α,α-trehalose): 300 fold
  Ki: 5.4 ± 0.3 µM
[2]
  Anti-invasive activity on cancer cells: in the same range as brartemicin

## Cc1cc(O)cc(O)c1C(=O)OC[C@H]1O[C@H](O[C@H]2O[C@H](CO)[C@@H](O)[C@H](O)[C@H]2O)[C@H](O)[C@@H](O)[C@@H]1O [compound 4]
[1]
  Reduction in binding affinity compared to brartemicin: roughly 30 fold
  Rel. affinity (affinity relative to α,α-trehalose): 9.8 fold
  Ki: 164 ± 13 µM

## Cc1cc(O)cc(O)c1C(=O)OC[C@H]1O[C@@H](O[C@H]2O[C@H](COC(=O)c3c(C)cc(O)cc3O)[C@@H](O)[C@H](O)[C@H]2O)[C@H](O)[C@@H](O)[C@@H]1O [epi-brartemicin, 6,6′-Bis-(2,4-dihydroxy-6-methylbenzoate)-α,β-trehalose]
[1]
  Reduction in binding affinity compared to brartemicin: ~100 fold
  Rel. affinity (affinity relative to α,α-trehalose): 3.6 fold
  Ki: 440 ± 70 µM

## Cc1cc(O)cc(O)c1C(=O)OC[C@H]1O[C@H](O[C@H]2O[C@H](COC(=O)c3c(C)cc(O)cc3O)[C@@H](O)[C@H](O)[C@H]2O)[C@H](O)[C@@H](O)[C@@H]1O [brartemicin, 6,6′-Bis-(2,4-dihydroxy-6-methylbenzoate)-α,α-trehalose]
[1]
  Ki: 5.5 ± 0.9 µM
[3]
  Binding to CRD of human mincle: binds with high affinity
[4]
  Solubility in aqueous media: soluble at millimolar concentrations
[2]
  Block of matrigel-invasion of cancer cells: block matrigel-invasion of cancer cells
